Test system: not given
Assay: not given
Conditions: not given

| Compound | melting point [°C] |
| --- | --- |
| CCCOCCOc1ccc(-c2ccc3c(c2)C=C(C(=O)Nc2ccc(CN(C)C4CCOCC4)cc2)CCN3Cc2ccsc2)cc1 [Compound 57, N-[4-[[N-methyl-N-(tetrahydropyran-4-yl)amino]methyl]phenyl]-7-(4-propoxyethoxyphenyl)-1-(3-thienylmethyl)-2,3-dihydro-1-benzazepine-4-carboxamide] | 131.5 to 132.5 |
| CCCOCCOc1ccc(-c2ccc3c(c2)C=C(C(=O)Nc2ccc(CN(C)C4CCOCC4)cc2)CCN3Cc2cccs2)cc1 [Compound 59, N-[4-[[N-methyl-N-(tetrahydropyran-4-yl)amino]methyl]phenyl]-7-(4-propoxyethoxyphenyl)-1-(2-thienylmethyl)-2,3-dihydro-1-benzazepine-4-carboxamide] | 104.5 to 105.5 |
| CCCCOCCOc1ccc(-c2ccc3c(c2)C=C(C(=O)Nc2ccc(CN(C)C4CCOCC4)cc2)CCN3Cc2cccs2)cc1 [Compound 60, 7-(4-butoxyethoxyphenyl)-N-[4-[[N-methyl-N-(tetrahydropyran-4-yl)amino]methyl]phenyl]-1-(2-thienylmethyl)-2,3-dihydro-1-benzazepine-4-carboxamide] | 84 to 85 |
| CCCOCCOc1ccc(-c2ccc3c(c2)C=C(C(=O)Nc2ccc(CN(C)C4CCOCC4)cc2)CCN3Cc2ccoc2)cc1 [Compound 61, 1-(3-furylmethyl)-N-[4-[[N-methyl-N-(tetrahydropyran-4-yl)amino]methyl]phenyl]-7-(4-propoxyethoxyphenyl)-2,3-dihydro-1-benzazepine-4-carboxamide] | 115 to 116 |
| CCCCOCCOc1ccc(-c2ccc3c(c2)C=C(C(=O)Nc2ccc(CN(C)C4CCOCC4)cc2)CCN3Cc2ccoc2)cc1 [Compound 62, 7-(4-butoxyethoxyphenyl)-1-(3-furylmethyl)-N-[4-[[N-methyl-N-(tetrahydropyran-4-yl)amino]methyl]phenyl]-2,3-dihydro-1-benzazepine-4-carboxamide] | 116 to 117 |
| CCCCOCCOc1ccc(-c2ccc3c(c2)C=C(C(=O)Nc2ccc(CN(C)C4CCOCC4)cc2)CCN3Cc2ccccc2OCC)cc1 [Compound 63, 7-(4-butoxyethoxyphenyl)-1-(2-ethoxybenzyl)-N-[4-[[N-methyl-N-(tetrahydropyran-4-yl)amino]methyl]phenyl]-2,3-dihydro-1-benzazepine-4-carboxamide] | 104.5 to 105.5 |
| CCCCOCCOc1ccc(-c2ccc3c(c2)C=C(C(=O)Nc2ccc(CN(C)C4CCOCC4)cc2)CCN3Cc2cccc(OCCC)c2)cc1 [Compound 64, 7-(4-butoxyethoxyphenyl)-N-[4-[[N-methyl-N-(tetrahydropyran-4-yl)amino]methyl]phenyl]-1-(3-propoxybenzyl)-2,3-dihydro-1-benzazepine-4-carboxamide] | 114.5 to 115.5 |
| CCCCOCCOc1ccc(-c2ccc3c(c2)C=C(C(=O)Nc2ccc(CN(C)C4CCOCC4)cc2)CCN3Cc2cc(OC)ccc2OC)cc1 [Compound 65, 7-(4-butoxyethoxyphenyl)-1-(2,5-dimethoxybenzyl)-N-[4-[[N-methyl-N-(tetrahydropyran-4-yl)amino]methyl]phenyl]-2,3-dihydro-1-benzazepine-4-carboxamide] | 143 to 144 |
| CC#CCN1CCC(C(=O)Nc2ccc(CN(C)C3CCOCC3)cc2)=Cc2cc(-c3ccc(OCCOCCCC)cc3)ccc21 [Compound 95, 7-[4-(2-butoxyethoxy)phenyl]-1-(2-butynyl)-N-[4-[N-methyl-N-(tetrahydropyran-4-yl)aminomethyl]phenyl]-2,3-dihydro-1-benzazepine-4-carboxamide] | 129 to 131 |
| CCCOCCOc1ccc(-c2ccc3c(c2)C=C(C(=O)Nc2ccc(CN(C)C4CCOCC4)cc2)CCN3CCCOC)cc1 [Compound 103, 1-(3-methoxypropyl)-N-[4-[[N-methyl-N-(tetrahydropyran-4-yl)amino]methyl]phenyl]-7-[4-(2-propoxyethoxy)phenyl]-2,3-dihydro-1H-1-benzazepine-4-carboxamide] | 87 to 90 |

Molecular target: T1, human CCR5 (Homo sapiens, UniProt P51681)
T1 construct: expressed in transfected cells
T1 sequence (P51681 whole entry): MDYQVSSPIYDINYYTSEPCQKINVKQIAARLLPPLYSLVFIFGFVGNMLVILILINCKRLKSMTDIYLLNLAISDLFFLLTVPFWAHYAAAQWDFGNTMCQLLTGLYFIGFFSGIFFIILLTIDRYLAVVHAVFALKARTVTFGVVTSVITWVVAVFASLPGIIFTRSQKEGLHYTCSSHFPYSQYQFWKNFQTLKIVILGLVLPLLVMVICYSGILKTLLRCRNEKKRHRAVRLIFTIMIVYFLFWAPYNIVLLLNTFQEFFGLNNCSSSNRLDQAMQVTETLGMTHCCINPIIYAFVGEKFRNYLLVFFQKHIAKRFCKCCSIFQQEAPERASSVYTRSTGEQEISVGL
Assay: Evaluation of test compounds based on CCR5 antagonistic activity: inhibition of [125I]-RANTES binding to CCR5/CHO cells
Conditions: Test Compound 1 μM, 100 pM [125I]-RANTES, room temperature for 40 minutes
Experimental: Cloning of CCR5 gene was carried out by a PCR method from human spleen cDNA. With using 0.5 ng of spleen cDNA (Toyobo, QUICK-Clone cDNA) as template, PCR was performed in DNA Thermal Cycler 480 (Perkin-Elmer) (reaction conditions: 30 cycles of 95° C. for 1 minute, 60° C. for 1 minute, and 75° C. for 5 minutes) by adding each 25 pmol of primers of a primer set, • SEQ ID NO.: 1 described in Test Example (1) of WO 99/32100 [length of sequence: 34; type of sequence: nucleic acid; strandedness: single; topology: straight; kind of sequence: other nucleic acid synthetic DNA, and • SEQ ID NO.: 2 described in Test Example (1) of WO 99/32100 [length of sequence: 34; type of sequence: nucleic acid; strandedness: single; topology: straight; kind of sequence: other nucleic acid synthetic DNA which were designed referring to nucleotide sequence of CCR5 gene reported by Samson et. al. (Biochemistry, 35(11), 3362-3367 (1996)) and by using TaKaRa EX Taq (Takara Shuzo). The resultant PCR product was subjected to agarose gel electrophoresis to collect about 1.0 kb DNA fragment, which was subjected to Original TA Cloning Kit (Funakoshi) to carry out cloning of CCR5 gene. (2) Preparation of Plasmid for Expression of Human CCR5
The plasmid obtained in the above (1) was digested with restriction enzymes XbaI (Takara Shuzo) and BamHI (Takara Shuzo) and subjected to agarose gel electrophoresis to collect about 1.0 kb DNA fragment.
The DNA fragment was mixed with plasmid pcDNA3.1 (Funakoshi) for expression in animal cells, said plasmid being digested with XbaI and BamHI, and they were ligated with DNA Ligation Kit Ver.2 (Takara Shuzo). The resulting plasmid was subjected to transformation of competent cell of E. coli JM109 (Takara Shuzo) to obtain plasmid pCKR5.
CHO-K1 cells were grown in 750 ml of tissue culture flask (Becton Dickinson) using Ham's F12 medium (Nihon Pharmaceutical) containing 10% fetal calf serum (Life Tech Oriental) and taken off with 0.5 g/L trypsin-0.2 g/L EDTA (Life Tech Oriental). The cells were washed with PBS (Life Tech Oriental), centrifuged (1000 rpm, 5 minutes), and suspended in PBS. With using Gene Pulser (Bio-Rad Laboratories), DNA was introduced into the cells under the conditions shown below. That is, to the cuvette of 0.4 cm gap were added 8×10^6 cells and 10 μg of plasmid pCKR5 for expression of human CCR5, and electroporation was carried out under 0.25 kV of voltage and 960 μF of capacitance. The cells were transferred into Ham's F12 medium containing 10% fetal calf serum, and cultivated for 24 hours. The cells were again taken off and centrifuged, and suspended in Ham's F12 medium containing 10% fetal calf serum and 500 μg/ml of geneticin (Life Tech Oriental). The suspension was diluted to give 10^4 cells/ml of the suspension, which was inoculated on a 96 well plate (Becton Dickinson) to give geneticin resistant cells.
The resulting geneticin resistant cells were cultivated in 96 well plate (Becton Dickinson), and cells expressing CCR5 were selected from the geneticin resistant cells. That is, in assay buffer (Ham's F12 medium containing 0.5% BSA and 20 mM HEPES (Wako Pure Chemical, pH7.2)) to which was added 200 pM of [^125I]-RANTES (Amersham) as a ligand, a binding reaction was carried out at room temperature for 46 minutes, and the buffer was washed with cooled PBS. To the buffer was added 50 μl/well of 1M NaOH, and the mixture was stirred. Radioactivity was determined with a y-counter to select CCR5/CHO cells which specifically bind to the ligand.
The CCR5/CHO cells were inoculated on 96 well microplate (5×10^4 cells/well) and cultivated for 24 hours. The medium was removed by means of suction, and to each well was added an assay buffer containing Test Compound (1 μM) and then 100 pM of [^125I]-RANTES (Amersham) as a ligand. A binding assay was carried out at room temperature for 40 minutes, and an assay buffer was removed by means of suction. […]

| Compound | Inhibitory Rate (%) |
| --- | --- |
| CCCCOCCOc1ccc(-c2ccc3c(c2)C=C(C(=O)Nc2ccc(CN(C)C4CCOCC4)cc2)CCN3CC)cc1 [Compound 19, 7-[4-(2-butoxyethoxy)phenyl]-1-ethyl-N-[4-[[N-methyl-N-(tetrahydro-2H-pyran-4-yl)amino]methyl]phenyl]-2,3-dihydro-1-H-1-benzazepine-4-carboxamide] | 100 |

Same assay, conditions: Test Compound 1 μM, 100 pM [125I]-RANTES, room temperature for 40 minutes, read-out: Inhibitory Rate (%)

| Compound | inhibition at 1 µM [%] |
| --- | --- |
| CCOCCOc1ccc(-c2ccc3c(c2)C=C(C(=O)Nc2ccc(CN(C)C4CCOCC4)cc2)CCN3C=O)cc1F [Compound 20, 7-[4-(2-ethoxy)ethoxy-3-fluorophenyl]-1-formyl-N-[4-[[N-methyl-N-(tetrahydro-2H-pyran-4-yl)amino]methyl]phenyl]-2,3-dihydro-1H-1-benzazepine-4-carboxamide] | 94 |
| CCCCOCCOc1ccc(-c2ccc3c(c2)C=C(C(=O)Nc2ccc(CN(C)C4CCOCC4)cc2)CCN3c2ccccc2)cc1 [Compound 39, 7-[4-(2-butoxyethoxy)phenyl]-1-phenyl-N-[4-[[N-methyl-N-(tetrahydro-2H-pyran-4-yl)amino]methyl]phenyl]-2,3-dihydro-1H-1-benzazepine-4-carboxamide] | 98 |
| CCCCOCCOc1ccc(-c2ccc3c(c2)C=C(C(=O)Nc2ccc(CN(C)C4CCOCC4)cc2)CCN3c2ccc3c(c2)OCO3)cc1 [Compound 43, 7-[4-(2-butoxyethoxy)phenyl]-1-(3,4-methylenedioxyphenyl)-N-[4-[[N-methyl-N-(tetrahydro-2H-pyran-4-yl)amino)methyl]phenyl]-2,3-dihydro-1H-1-benzazepine-4-carboxamide] | 100 |
| CCCCOCCOc1ccc(-c2ccc3c(c2)C=C(C(=O)Nc2ccc(CN(C)C4CCOCC4)cc2)CCN3Cc2nccs2)cc1 [Compound 68, 7-(4-butoxyethoxyphenyl)-N-[4-[[N-methyl-N-(tetrahydropyran-4-yl)amino]methyl]phenyl]-1-(thiazol-2-yl)methyl-2,3-dihydro-1-benzazepine-4-carboxamide] | 95 |
| CCCCOCCOc1ccc(-c2ccc3c(c2)C=C(C(=O)Nc2ccc(CN(C)C4CCOCC4)cc2)CCN3Cc2cnn(C)c2)cc1 [Compound 69, 7-(4-butoxyethoxyphenyl)-1-[(1-methylpyrazol-4-yl)methyl]-N-[4-[[N-methyl-N-(tetrahydropyran-4-yl)amino]methyl]phenyl]-2,3-dihydro-1-benzazepine-4-carboxamide] | 100 |
| CCCCOCCOc1ccc(-c2ccc3c(c2)C=C(C(=O)Nc2ccc(CN(C)C4CCOCC4)cc2)CCN3Cc2c(C)noc2C)cc1 [Compound 71, 7-(4-butoxyethoxyphenyl)-1-[(3,5-dimethylisoxazol-4-yl)methyl]-N-[4-[[N-methyl-N-(tetrahydropyran-4-yl)amino]methyl]phenyl]-2,3-dihydro-1-benzazepine-4-carboxamide] | 100 |
| CCCCOCCOc1ccc(-c2ccc3c(c2)C=C(C(=O)Nc2ccc(CN(C)C4CCCOC4)cc2)CCN3Cc2cc(C)ns2)cc1 (stereo not drawn) [Compound 77, 7-(4-butoxyethoxyphenyl)-1-[(3-methylisothiazol-5-yl)methyl]-N-[4-[[N-methyl-N-(tetrahydropyran-5-yl)amino]methyl]phenyl]-2,3-dihydro-1-benzazepine-4-carboxamide] | 97 |

Reference: patent US6936602B1, “Benzazepine derivatives, process for the preparation of the same and uses thereof” (Takeda Chemical Industries, Ltd., priority 1999, dated 2005)
